From the NIST ThermoML archive (doi:10.1016/j.jct.2013.09.010)
Values joined by “and” are separate entries in the source; they are usually repeats but may differ in a detail not shown here. Equal values may be shown once.

Key:
[1] = Liquid, Vibrating tube method
[2] = molar heat capacity at constant pressure; details: 101 kPa, Liquid, Small sample (50 mg) DSC

CCCC(=O)[O-].C[NH2+]CCO [N-methyl-2-hydroxyethylammonium butanoate]
mass density [kg/m3], [1]
Details | 298.15 K | 308.15 K | 318.15 K | 328.15 K | 338.15 K | 348.15 K | 358.15 K
100 kPa | 1035.29 | 1028.57 | 1021.88 | 1015.21 | 1008.57 | 1001.95 | 995.35
5000 kPa | 1037.49 | 1030.87 | 1024.28 | 1017.71 | 1011.17 | 1004.66 | 998.16
10000 kPa | 1039.66 | 1033.14 | 1026.66 | 1020.2 | 1013.77 | 1007.36 | 1000.98
15000 kPa | 1041.88 | 1035.43 | 1029.02 | 1022.64 | 1016.3 | 1010 | 1003.73
20000 kPa | 1043.97 | 1037.61 | 1031.28 | 1024.99 | 1018.73 | 1012.5 | 1006.31
25000 kPa | 1046.02 | 1039.73 | 1033.49 | 1027.31 | 1021.17 | 1015.08 | 1009.04

[2]
Details | molar heat capacity at constant pressure
286.15 K | 357.3 J/K/mol
287.15 K | 358.4 J/K/mol
288.15 K | 357 J/K/mol
290.15 K | 358.9 J/K/mol
291.15 K | 360.7 J/K/mol
292.15 K | 356.8 J/K/mol
293.15 K | 358.6 J/K/mol
294.15 K | 361 J/K/mol and 360.1 J/K/mol
295.15 K | 358.1 J/K/mol and 360.9 J/K/mol
296.15 K | 361.7 J/K/mol and 357.1 J/K/mol
297.15 K | 362.7 J/K/mol and 358.9 J/K/mol
298.15 K | 363.2 J/K/mol and 359.6 J/K/mol
299.15 K | 364 J/K/mol and 360.7 J/K/mol
300.15 K | 364.6 J/K/mol and 361.2 J/K/mol
301.15 K | 361.7 J/K/mol and 365.3 J/K/mol
302.15 K | 362.2 J/K/mol and 365.8 J/K/mol
303.15 K | 362.3 J/K/mol and 366.4 J/K/mol
304.15 K | 362.8 J/K/mol and 367.1 J/K/mol
305.15 K | 363.3 J/K/mol and 367.6 J/K/mol
306.15 K | 363.8 J/K/mol and 368 J/K/mol
307.15 K | 364.3 J/K/mol and 368.5 J/K/mol
308.15 K | 364.8 J/K/mol and 368.9 J/K/mol
309.15 K | 364.9 J/K/mol and 369.4 J/K/mol
310.15 K | 365.4 J/K/mol and 369.7 J/K/mol
311.15 K | 365.8 J/K/mol and 370.3 J/K/mol
312.15 K | 366.4 J/K/mol and 370.8 J/K/mol
313.15 K | 367.2 J/K/mol and 371.5 J/K/mol
314.15 K | 368 J/K/mol and 372.1 J/K/mol
315.15 K | 368.7 J/K/mol and 372.8 J/K/mol
316.15 K | 369.2 J/K/mol and 373.6 J/K/mol
317.15 K | 369.5 J/K/mol and 374.3 J/K/mol
318.15 K | 369.7 J/K/mol and 374.7 J/K/mol
319.15 K | 370 J/K/mol and 375.4 J/K/mol
320.15 K | 370.2 J/K/mol and 375.7 J/K/mol
321.15 K | 370.7 J/K/mol and 376.2 J/K/mol
322.15 K | 371.2 J/K/mol and 376.9 J/K/mol
323.15 K | 371.5 J/K/mol and 377.5 J/K/mol
324.15 K | 372.1 J/K/mol and 378.2 J/K/mol
325.15 K | 372.8 J/K/mol and 378.7 J/K/mol
326.15 K | 373.8 J/K/mol and 379.3 J/K/mol
327.15 K | 374.7 J/K/mol and 380.1 J/K/mol
328.15 K | 375.4 J/K/mol and 380.6 J/K/mol
329.15 K | 375.7 J/K/mol and 381.3 J/K/mol
330.15 K | 375.6 J/K/mol and 381.8 J/K/mol
331.15 K | 375.4 J/K/mol and 382.1 J/K/mol
332.15 K | 375.2 J/K/mol and 382.9 J/K/mol
333.15 K | 374.9 J/K/mol and 383.1 J/K/mol
334.15 K | 375.2 J/K/mol and 383.9 J/K/mol
335.15 K | 375.7 J/K/mol and 384.7 J/K/mol
336.15 K | 377.2 J/K/mol
